Test results taken from PMC12670405, “Second-Generation AURKA-Targeting PROTACs: Structural Optimization toward in Vivo Degradation in Neuroblastoma” (Journal of Medicinal Chemistry, 2025).

Key:
Experiment in all cases: KINOMEscan scanMAX
Assay type in all cases: binding
Settings in all cases: read-out: Percent Control
AKT2 = target: T1, AKT2 (Homo sapiens, UniProt P31751)
T1 construct: purchased Eurofins Discovery (DiscoverX KINOMEscan scanMAX)
Protocol: (§1) The kinome-wide binding assay was performed by Eurofins Discovery using the scanMAX screening platform. More information can be found on the Eurofins Discovery Web site.

BRAF = target: T2, BRAF (Homo sapiens, UniProt P15056)
T2 construct: purchased Eurofins Discovery (DiscoverX KINOMEscan scanMAX)
Protocol: as §1

CAMK4 = target: T3, CAMK4 (Homo sapiens, UniProt Q16566)
T3 construct: purchased Eurofins Discovery (DiscoverX KINOMEscan scanMAX)
Protocol: as §1

CDK11 = target: T4, CDK11 (Homo sapiens, UniProt Q9BWU1)
T4 construct: purchased Eurofins Discovery (DiscoverX KINOMEscan scanMAX)
Protocol: as §1

CDK2 = target: T5, CDK2 (Homo sapiens, UniProt P24941)
T5 construct: purchased Eurofins Discovery (DiscoverX KINOMEscan scanMAX)
Protocol: as §1

CSF1R = target: T6, CSF1R (Homo sapiens, UniProt P07333)
T6 construct: purchased Eurofins Discovery (DiscoverX KINOMEscan scanMAX)
Protocol: as §1

CSK = target: T7, CSK (Homo sapiens, UniProt P41240)
T7 construct: purchased Eurofins Discovery (DiscoverX KINOMEscan scanMAX)
Protocol: as §1

CSNK1G3 = target: T8, CSNK1G3 (Homo sapiens, UniProt Q9Y6M4)
T8 construct: purchased Eurofins Discovery (DiscoverX KINOMEscan scanMAX)
Protocol: as §1

DYRK1A = target: T9, DYRK1A (Homo sapiens, UniProt Q13627)
T9 construct: purchased Eurofins Discovery (DiscoverX KINOMEscan scanMAX)
Protocol: as §1

DYRK1B = target: T10, DYRK1B (Homo sapiens, UniProt Q9Y463)
T10 construct: purchased Eurofins Discovery (DiscoverX KINOMEscan scanMAX)
Protocol: as §1

[1] = target: T11, EGFR(L747-E749del, A750P) (Homo sapiens, UniProt P00533, A750P/DEL747-749)
T11 construct: purchased Eurofins Discovery (DiscoverX KINOMEscan scanMAX)
Protocol: as §1

EPHA6 = target: T12, EPHA6 (Homo sapiens, UniProt Q9UF33)
T12 construct: purchased Eurofins Discovery (DiscoverX KINOMEscan scanMAX)
Protocol: as §1

EPHA8 = target: T13, EPHA8 (Homo sapiens, UniProt P29322)
T13 construct: purchased Eurofins Discovery (DiscoverX KINOMEscan scanMAX)
Protocol: as §1

ERK8 = target: T14, ERK8 (Homo sapiens, UniProt Q8TD08)
T14 construct: purchased Eurofins Discovery (DiscoverX KINOMEscan scanMAX)
Protocol: as §1

FLT3(R834Q) = target: T15, FLT3(R834Q) (Homo sapiens, UniProt P36888, R834Q)
T15 construct: purchased Eurofins Discovery (DiscoverX KINOMEscan scanMAX)
Protocol: as §1

GRK1 = target: T16, GRK1 (Homo sapiens, UniProt Q15835)
T16 construct: purchased Eurofins Discovery (DiscoverX KINOMEscan scanMAX)
Protocol: as §1

HASPIN = target: T17, HASPIN (Homo sapiens, UniProt Q8TF76)
T17 construct: purchased Eurofins Discovery (DiscoverX KINOMEscan scanMAX)
Protocol: as §1

KIT = target: T18, KIT (Homo sapiens, UniProt P10721)
T18 construct: purchased Eurofins Discovery (DiscoverX KINOMEscan scanMAX)
Protocol: as §1

KIT(L576P) = target: T19, KIT(L576P) (Homo sapiens, UniProt P10721, L576P)
T19 construct: purchased Eurofins Discovery (DiscoverX KINOMEscan scanMAX)
Protocol: as §1

KIT(V559D,T670I) = target: T20, KIT(V559D,T670I) (Homo sapiens, UniProt P10721, T670I/V559D)
T20 construct: purchased Eurofins Discovery (DiscoverX KINOMEscan scanMAX)
Protocol: as §1

MEK5 = target: T21, MEK5 (Homo sapiens, UniProt Q13163)
T21 construct: purchased Eurofins Discovery (DiscoverX KINOMEscan scanMAX)
Protocol: as §1

MET(Y1235D) = target: T22, MET(Y1235D) (Homo sapiens, UniProt P08581, Y1235D)
T22 construct: purchased Eurofins Discovery (DiscoverX KINOMEscan scanMAX)
Protocol: as §1

MKNK1 = target: T23, MKNK1 (Homo sapiens, UniProt Q9BUB5)
T23 construct: purchased Eurofins Discovery (DiscoverX KINOMEscan scanMAX)
Protocol: as §1

MST1 = target: T24, MST1 (Homo sapiens, UniProt Q13043)
T24 construct: purchased Eurofins Discovery (DiscoverX KINOMEscan scanMAX)
Protocol: as §1

OSR1 = target: T25, OSR1 (Homo sapiens, UniProt O95747)
T25 construct: purchased Eurofins Discovery (DiscoverX KINOMEscan scanMAX)
Protocol: as §1

PIK3CD = target: T26, PIK3CD (Homo sapiens, UniProt O00329)
T26 construct: purchased Eurofins Discovery (DiscoverX KINOMEscan scanMAX)
Protocol: as §1

PKN1 = target: T27, PKN1 (Homo sapiens, UniProt Q16512)
T27 construct: purchased Eurofins Discovery (DiscoverX KINOMEscan scanMAX)
Protocol: as §1

RIOK2 = target: T28, RIOK2 (Homo sapiens, UniProt Q9BVS4)
T28 construct: purchased Eurofins Discovery (DiscoverX KINOMEscan scanMAX)
Protocol: as §1

SGK = target: T29, SGK (Homo sapiens, UniProt O00141)
T29 construct: purchased Eurofins Discovery (DiscoverX KINOMEscan scanMAX)
Protocol: as §1

STK16 = target: T30, STK16 (Homo sapiens, UniProt O75716)
T30 construct: purchased Eurofins Discovery (DiscoverX KINOMEscan scanMAX)
Protocol: as §1

TIE1 = target: T31, TIE1 (Homo sapiens, UniProt P35590)
T31 construct: purchased Eurofins Discovery (DiscoverX KINOMEscan scanMAX)
Protocol: as §1

WNK2 = target: T32, WNK2 (Homo sapiens, UniProt Q9Y3S1)
T32 construct: purchased Eurofins Discovery (DiscoverX KINOMEscan scanMAX)
Protocol: as §1

WNK4 = target: T33, WNK4 (Homo sapiens, UniProt Q96J92)
T33 construct: purchased Eurofins Discovery (DiscoverX KINOMEscan scanMAX)
Protocol: as §1

YANK2 = target: T34, YANK2 (Homo sapiens, UniProt Q9NY57)
T34 construct: purchased Eurofins Discovery (DiscoverX KINOMEscan scanMAX)
Protocol: as §1

T12 sequence (Q9UF33 23-1036): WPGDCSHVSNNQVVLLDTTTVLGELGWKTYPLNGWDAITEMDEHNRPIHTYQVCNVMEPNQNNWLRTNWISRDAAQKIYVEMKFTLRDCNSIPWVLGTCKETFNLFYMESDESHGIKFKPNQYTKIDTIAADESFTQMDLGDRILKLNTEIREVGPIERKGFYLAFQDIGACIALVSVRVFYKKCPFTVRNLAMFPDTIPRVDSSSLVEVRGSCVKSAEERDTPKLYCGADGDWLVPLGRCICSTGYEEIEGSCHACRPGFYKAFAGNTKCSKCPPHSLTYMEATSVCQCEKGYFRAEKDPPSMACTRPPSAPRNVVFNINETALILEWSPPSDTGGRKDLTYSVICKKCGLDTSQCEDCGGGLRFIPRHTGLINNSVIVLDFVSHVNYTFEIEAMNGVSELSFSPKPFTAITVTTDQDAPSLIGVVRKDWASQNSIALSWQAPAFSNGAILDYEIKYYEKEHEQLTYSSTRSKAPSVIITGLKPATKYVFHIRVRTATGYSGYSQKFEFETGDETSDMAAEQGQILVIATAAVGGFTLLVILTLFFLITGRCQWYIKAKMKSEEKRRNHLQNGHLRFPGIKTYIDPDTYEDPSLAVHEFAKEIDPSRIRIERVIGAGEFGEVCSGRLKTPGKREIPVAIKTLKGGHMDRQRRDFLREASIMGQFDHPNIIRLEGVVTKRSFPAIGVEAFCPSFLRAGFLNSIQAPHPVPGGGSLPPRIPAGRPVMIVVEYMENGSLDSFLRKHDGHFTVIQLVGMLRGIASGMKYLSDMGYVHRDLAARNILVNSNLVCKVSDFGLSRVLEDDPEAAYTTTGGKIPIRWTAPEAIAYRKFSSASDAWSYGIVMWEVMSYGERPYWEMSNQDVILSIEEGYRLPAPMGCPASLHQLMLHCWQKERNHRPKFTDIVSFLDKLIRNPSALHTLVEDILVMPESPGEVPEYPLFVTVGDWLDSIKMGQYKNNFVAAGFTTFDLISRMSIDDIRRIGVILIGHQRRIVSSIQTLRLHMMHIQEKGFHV
T34 sequence (Q9NY57 whole entry): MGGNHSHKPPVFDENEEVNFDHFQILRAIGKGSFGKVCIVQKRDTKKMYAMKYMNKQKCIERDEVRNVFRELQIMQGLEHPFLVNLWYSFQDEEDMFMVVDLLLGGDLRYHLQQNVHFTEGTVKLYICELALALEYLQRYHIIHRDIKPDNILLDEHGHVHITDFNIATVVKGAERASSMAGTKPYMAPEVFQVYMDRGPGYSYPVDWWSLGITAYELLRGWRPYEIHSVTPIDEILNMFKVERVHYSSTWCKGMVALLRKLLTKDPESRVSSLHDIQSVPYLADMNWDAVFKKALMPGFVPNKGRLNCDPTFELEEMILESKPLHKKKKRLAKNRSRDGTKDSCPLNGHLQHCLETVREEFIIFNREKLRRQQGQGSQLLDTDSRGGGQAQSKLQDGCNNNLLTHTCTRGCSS
T1 sequence (P31751 whole entry): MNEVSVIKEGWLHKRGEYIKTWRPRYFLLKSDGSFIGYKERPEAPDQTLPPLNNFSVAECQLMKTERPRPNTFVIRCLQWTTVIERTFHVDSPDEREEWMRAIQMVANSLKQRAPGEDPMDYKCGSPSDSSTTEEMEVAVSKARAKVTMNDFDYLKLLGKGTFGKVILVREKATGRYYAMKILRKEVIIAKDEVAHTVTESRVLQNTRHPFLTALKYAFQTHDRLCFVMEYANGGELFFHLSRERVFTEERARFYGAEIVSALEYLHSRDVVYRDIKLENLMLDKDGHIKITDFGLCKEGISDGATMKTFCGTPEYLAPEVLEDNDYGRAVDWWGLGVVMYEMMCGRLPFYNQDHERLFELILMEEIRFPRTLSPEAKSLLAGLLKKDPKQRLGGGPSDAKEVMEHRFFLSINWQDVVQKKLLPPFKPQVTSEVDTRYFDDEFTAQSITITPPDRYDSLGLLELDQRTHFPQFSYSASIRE
T2 sequence (P15056 whole entry): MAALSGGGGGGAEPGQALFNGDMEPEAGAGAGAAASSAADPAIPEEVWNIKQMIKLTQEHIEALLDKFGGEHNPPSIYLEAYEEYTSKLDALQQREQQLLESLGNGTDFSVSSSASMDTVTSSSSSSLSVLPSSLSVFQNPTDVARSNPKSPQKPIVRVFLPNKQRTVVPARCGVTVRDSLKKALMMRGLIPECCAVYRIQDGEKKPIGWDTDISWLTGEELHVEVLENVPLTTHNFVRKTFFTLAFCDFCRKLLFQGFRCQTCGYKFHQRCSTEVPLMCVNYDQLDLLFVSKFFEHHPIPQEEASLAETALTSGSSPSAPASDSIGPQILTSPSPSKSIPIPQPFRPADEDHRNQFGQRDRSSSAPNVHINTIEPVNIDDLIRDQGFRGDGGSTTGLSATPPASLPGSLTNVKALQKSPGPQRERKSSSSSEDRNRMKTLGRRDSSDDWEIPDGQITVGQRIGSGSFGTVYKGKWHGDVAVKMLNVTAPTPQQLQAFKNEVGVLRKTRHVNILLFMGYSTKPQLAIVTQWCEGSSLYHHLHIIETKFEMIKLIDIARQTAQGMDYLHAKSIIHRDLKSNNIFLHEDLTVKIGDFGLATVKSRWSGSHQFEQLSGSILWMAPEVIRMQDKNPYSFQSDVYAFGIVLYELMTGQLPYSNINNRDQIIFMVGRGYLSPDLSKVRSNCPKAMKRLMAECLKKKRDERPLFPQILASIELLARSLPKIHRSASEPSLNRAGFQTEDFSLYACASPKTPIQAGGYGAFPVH
T16 sequence (Q15835 whole entry): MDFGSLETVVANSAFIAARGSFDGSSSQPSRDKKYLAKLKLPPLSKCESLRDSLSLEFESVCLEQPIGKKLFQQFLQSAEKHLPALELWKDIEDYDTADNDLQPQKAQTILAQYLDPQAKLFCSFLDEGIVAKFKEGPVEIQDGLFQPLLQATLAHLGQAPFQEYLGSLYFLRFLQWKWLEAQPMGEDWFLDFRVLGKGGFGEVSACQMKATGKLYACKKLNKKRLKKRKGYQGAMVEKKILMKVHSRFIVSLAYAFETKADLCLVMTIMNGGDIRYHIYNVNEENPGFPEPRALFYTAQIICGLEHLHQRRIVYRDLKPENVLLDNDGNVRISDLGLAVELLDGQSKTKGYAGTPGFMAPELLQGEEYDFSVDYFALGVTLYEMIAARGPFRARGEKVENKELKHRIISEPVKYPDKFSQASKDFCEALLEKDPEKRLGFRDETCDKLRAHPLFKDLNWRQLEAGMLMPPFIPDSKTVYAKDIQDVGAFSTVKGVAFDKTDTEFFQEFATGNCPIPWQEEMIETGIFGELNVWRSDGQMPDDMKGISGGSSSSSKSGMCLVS
T25 sequence (O95747 whole entry): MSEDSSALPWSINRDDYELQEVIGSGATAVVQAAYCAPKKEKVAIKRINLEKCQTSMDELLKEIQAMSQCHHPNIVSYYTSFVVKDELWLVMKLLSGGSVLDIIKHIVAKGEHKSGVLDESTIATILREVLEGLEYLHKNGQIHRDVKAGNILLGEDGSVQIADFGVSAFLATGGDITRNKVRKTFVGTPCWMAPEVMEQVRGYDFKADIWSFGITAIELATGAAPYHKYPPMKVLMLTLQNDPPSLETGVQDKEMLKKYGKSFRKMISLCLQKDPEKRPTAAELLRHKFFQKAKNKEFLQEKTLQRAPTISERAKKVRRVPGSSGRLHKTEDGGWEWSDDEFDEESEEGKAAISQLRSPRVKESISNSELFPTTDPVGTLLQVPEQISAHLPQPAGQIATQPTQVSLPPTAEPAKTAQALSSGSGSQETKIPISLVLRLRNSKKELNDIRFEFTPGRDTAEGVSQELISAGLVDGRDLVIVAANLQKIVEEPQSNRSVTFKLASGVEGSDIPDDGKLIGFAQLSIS
T23 sequence (Q9BUB5 whole entry): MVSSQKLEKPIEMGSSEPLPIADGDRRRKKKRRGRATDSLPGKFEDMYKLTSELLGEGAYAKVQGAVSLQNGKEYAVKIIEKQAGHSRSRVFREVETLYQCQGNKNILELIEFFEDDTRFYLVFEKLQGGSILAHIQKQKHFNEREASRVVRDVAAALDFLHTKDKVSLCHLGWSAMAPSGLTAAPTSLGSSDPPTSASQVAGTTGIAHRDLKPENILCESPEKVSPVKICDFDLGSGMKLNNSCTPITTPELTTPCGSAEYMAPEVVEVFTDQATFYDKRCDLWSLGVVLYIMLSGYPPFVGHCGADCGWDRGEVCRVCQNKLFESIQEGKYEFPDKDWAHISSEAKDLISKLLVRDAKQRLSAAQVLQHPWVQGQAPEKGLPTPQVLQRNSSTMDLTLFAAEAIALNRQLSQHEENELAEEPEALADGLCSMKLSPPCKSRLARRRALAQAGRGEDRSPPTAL
T17 sequence (Q8TF76 whole entry): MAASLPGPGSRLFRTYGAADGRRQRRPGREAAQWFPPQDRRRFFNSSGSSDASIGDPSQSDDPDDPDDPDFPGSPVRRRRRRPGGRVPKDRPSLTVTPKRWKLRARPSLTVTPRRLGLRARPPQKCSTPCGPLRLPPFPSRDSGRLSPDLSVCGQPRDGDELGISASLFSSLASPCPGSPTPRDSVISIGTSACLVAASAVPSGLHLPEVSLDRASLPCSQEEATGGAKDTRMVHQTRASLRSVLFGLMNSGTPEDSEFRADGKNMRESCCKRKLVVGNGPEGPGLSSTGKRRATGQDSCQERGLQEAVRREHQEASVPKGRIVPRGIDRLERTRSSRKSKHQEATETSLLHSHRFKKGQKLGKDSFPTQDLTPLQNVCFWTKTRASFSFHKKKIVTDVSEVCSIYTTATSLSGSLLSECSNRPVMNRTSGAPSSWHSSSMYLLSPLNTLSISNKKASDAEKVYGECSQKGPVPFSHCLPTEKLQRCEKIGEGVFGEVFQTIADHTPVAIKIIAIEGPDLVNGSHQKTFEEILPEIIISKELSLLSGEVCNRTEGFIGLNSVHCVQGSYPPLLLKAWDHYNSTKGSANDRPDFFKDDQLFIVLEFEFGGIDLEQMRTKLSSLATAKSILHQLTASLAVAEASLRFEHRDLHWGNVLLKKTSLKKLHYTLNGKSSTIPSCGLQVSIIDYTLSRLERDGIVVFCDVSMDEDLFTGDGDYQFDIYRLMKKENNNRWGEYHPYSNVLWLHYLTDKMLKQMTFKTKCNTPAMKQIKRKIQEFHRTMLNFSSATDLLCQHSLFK

Compound Cc1cc(Nc2ccc(F)c(CC3(C(=O)N4CCC(F)(CN5CCN(c6ccc(N7CCC(=O)NC7=O)cn6)CC5)CC4)CCN(Cc4cccc(Cl)c4F)CC3)n2)n[nH]1 [SK5527] has a remaining binding at 0.1 µM (AKT2; 100 nM) of 98%, a remaining binding at 1 µM (AKT2; 1000 nM) of 98% and a remaining binding at 0.1 µM (BRAF; 100 nM) of 100%. The remaining binding at 1 µM (BRAF; 1000 nM) was 100%, the remaining binding at 0.1 µM (CAMK4; 100 nM) was 100% and the remaining binding at 1 µM (CAMK4; 1000 nM) was 100%. The remaining binding at 0.1 µM (CDK11; 100 nM) was 92%, the remaining binding at 1 µM (CDK11; 1000 nM) was 85% and the remaining binding at 0.1 µM (CDK2; 100 nM) was 100%. The remaining binding at 1 µM (CDK2; 1000 nM) was 94%, the remaining binding at 0.1 µM (CSF1R; 100 nM) was 97% and the remaining binding at 1 µM (CSF1R; 1000 nM) was 90%. It also gave a remaining binding at 0.1 µM (CSK; 100 nM) of 100%, a remaining binding at 1 µM (CSK; 1000 nM) of 100% and a remaining binding at 0.1 µM (CSNK1G3; 100 nM) of 100%. The remaining binding at 1 µM (CSNK1G3; 1000 nM) was 92%, the remaining binding at 0.1 µM (DYRK1A; 100 nM) was 79% and the remaining binding at 1 µM (DYRK1A; 1000 nM) was 80%. It also gave a remaining binding at 0.1 µM (DYRK1B; 100 nM) of 98%, a remaining binding at 1 µM (DYRK1B; 1000 nM) of 74% and a remaining binding at 0.1 µM ([1]; 100 nM) of 100%. For the same compound, the remaining binding at 1 µM ([1]; 1000 nM) was 97%, the remaining binding at 0.1 µM (EPHA6; 100 nM) was 100% and the remaining binding at 1 µM (EPHA6; 1000 nM) was 93%. The remaining binding at 0.1 µM (EPHA8; 100 nM) was 91%, the remaining binding at 1 µM (EPHA8; 1000 nM) was 81% and the remaining binding at 0.1 µM (ERK8; 100 nM) was 89%. For the same compound, the remaining binding at 1 µM (ERK8; 1000 nM) was 92%, the remaining binding at 0.1 µM (FLT3(R834Q); 100 nM) was 86% and the remaining binding at 1 µM (FLT3(R834Q); 1000 nM) was 75%. For the same compound, the remaining binding at 0.1 µM (GRK1; 100 nM) was 100%, the remaining binding at 1 µM (GRK1; 1000 nM) was 85% and the remaining binding at 0.1 µM (HASPIN; 100 nM) was 79%. It also gave a remaining binding at 1 µM (HASPIN; 1000 nM) of 70%, a remaining binding at 0.1 µM (KIT; 100 nM) of 100% and a remaining binding at 1 µM (KIT; 1000 nM) of 61%. The remaining binding at 0.1 µM (KIT(L576P); 100 nM) was 100%, the remaining binding at 1 µM (KIT(L576P); 1000 nM) was 100% and the remaining binding at 0.1 µM (KIT(V559D,T670I); 100 nM) was 100%. The remaining binding at 1 µM (KIT(V559D,T670I); 1000 nM) was 89%, the remaining binding at 0.1 µM (MEK5; 100 nM) was 83% and the remaining binding at 1 µM (MEK5; 1000 nM) was 61%. The remaining binding at 0.1 µM (MET(Y1235D); 100 nM) was 86%, the remaining binding at 1 µM (MET(Y1235D); 1000 nM) was 100% and the remaining binding at 0.1 µM (MKNK1; 100 nM) was 84%. For the same compound, the remaining binding at 1 µM (MKNK1; 1000 nM) was 92%, the remaining binding at 0.1 µM (MST1; 100 nM) was 100% and the remaining binding at 1 µM (MST1; 1000 nM) was 100%. The remaining binding at 0.1 µM (OSR1; 100 nM) was 100%, the remaining binding at 1 µM (OSR1; 1000 nM) was 97% and the remaining binding at 0.1 µM (PIK3CD; 100 nM) was 69%. It also gave a remaining binding at 1 µM (PIK3CD; 1000 nM) of 87%, a remaining binding at 0.1 µM (PKN1; 100 nM) of 100% and a remaining binding at 1 µM (PKN1; 1000 nM) of 89%. The remaining binding at 0.1 µM (RIOK2; 100 nM) was 93%, the remaining binding at 1 µM (RIOK2; 1000 nM) was 64% and the remaining binding at 0.1 µM (SGK; 100 nM) was 93%. It also gave a remaining binding at 1 µM (SGK; 1000 nM) of 68%, a remaining binding at 0.1 µM (STK16; 100 nM) of 100% and a remaining binding at 1 µM (STK16; 1000 nM) of 69%. It also gave a remaining binding at 0.1 µM (TIE1; 100 nM) of 89%, a remaining binding at 1 µM (TIE1; 1000 nM) of 68% and a remaining binding at 0.1 µM (WNK2; 100 nM) of 100%. For the same compound, the remaining binding at 1 µM (WNK2; 1000 nM) was 100%, the remaining binding at 0.1 µM (WNK4; 100 nM) was 80% and the remaining binding at 1 µM (WNK4; 1000 nM) was 95%. It also gave a remaining binding at 0.1 µM (YANK2; 100 nM) of 100% and a remaining binding at 1 µM (YANK2; 1000 nM) of 100%.
